From article PMC12530850, “Synthesis, antidiabetic evaluation, and computational modeling of 3-acetyl-8-ethoxy coumarin derived hydrazones and thiosemicarbazones” (RSC Advances, 2025)
“And” between values parts separate entries of the source, which are not always exact repeats. Identical values can stand only once.

Experiments:
[1] = target: α-amylase; test: α-amylase inhibition assay (starch substrate); assay type: biochemical; details: pH 6.9, 35 °C
Method: A 0.4 M starch combination was made in 80 mL of NaOH solution and heated to 80 °C for 30 minutes in order to create the starch. After that, 10 μL of various chemical concentrations were combined with 35 μL of starch solution and 35 μL of phosphate buffer (pH 6.9), and the mixture was incubated for 25 minutes at 35 °C. Finally, the final combination was reincubated for 25 minutes after 20 μL of the α-amylase solution was added. Each tube was filled with 50 μL of HCl (0.1 M) to complete the reactions. At 580 nm, the absorbance was measured. The amount of αamylase needed to release one μmol of reducing sugar, which is estimated to be glucose per minute at pH 6.9 and 40 °C, is known as one α-amylase unit.[52,53]

[2] = Antioxidant assay (metal chelating, Fe^2+ binding at 522 nm); details: Fe^2+ chelating
Method: Fe^2+ chelating ability of novel compounds was predicted according to Dinis et al.[54] with slight modification. Fe^2+-binding capacity of novel compounds was spectrophotometrically recorded at 522 nm. This study was conducted based on previous papers.[55,56]
In this section, we studied the metal chelating method, one of the antioxidant methods for toxicity. To stop the metal ions from serving as catalysts of lipid oxidation, metal-chelating antioxidants are thus added to food products. […] In this study, EDTA was used as a standard.

| SMILES | IC50 [1] | Metal chelating (IC50) [2] [µg/mL] |
| --- | --- | --- |
| CCOc1cccc2cc(/C(C)=N/NC(=O)c3ccco3)c(=O)oc12 [Compound 3g, (E)-N′-[1-(8-Ethoxy-2-oxo-2H-chromen-3-yl)ethylidene]furan-2-carbohydrazide] | 189 ± 9.65 nM | >100 |
| CCOc1cccc2cc(/C(C)=N/NC(=O)c3ccccc3OC)c(=O)oc12 [Compound 3d, (E)-N′-[1-(8-Ethoxy-2-oxo-2H-chromen-3-yl)ethylidene]-2-methoxybenzohydrazide] | 177 ± 8.25 nM | >100 |
| CCOc1cccc2cc(/C(C)=N/NC(=O)c3c[nH]c4ccccc34)c(=O)oc12 [Compound 3f, (E)-N′-[1-(8-Ethoxy-2-oxo-2H-chromen-3-yl)ethylidene]-1H-indole-3-carbohydrazide] | 425 ± 11.1 nM | >100 |
| CCOc1cccc2cc(/C(C)=N/NC(=O)c3cccs3)c(=O)oc12 [Compound 3a, (E)-N′-[1-(8-Ethoxy-2-oxo-2H-chromen-3-yl)ethylidene]thiophene-2-carbohydrazide] | 430 ± 7.6 nM | >100 |
| COc1cccc2cc(/C(C)=N/NC(N)=S)c(=O)oc12 [Compound 5e, (E)-2-[1-(8-Methoxy-2-oxo-2H-chromen-3-yl)ethylidene]hydrazine-1-carbothioamide] | 146 ± 7.35 nM | 35.96 ± 0.52 |
| CCOc1cccc2cc(/C(C)=N/NC(=O)c3cnccn3)c(=O)oc12 [Compound 3e, (E)-N′-[1-(8-Ethoxy-2-oxo-2H-chromen-3-yl)ethylidene]pyrazine-2-carbohydrazide] | 479 ± 8.7 nM | >100 |
| COc1cccc2cc(/C(C)=N/NC(=S)NCc3ccccc3)c(=O)oc12 [Compound 5a, (E)-N-Benzyl-2-[1-(8-methoxy-2-oxo-2H-chromen-3-yl)ethylidene]hydrazine-1-carbothioamide] | 264.5 ± 2.64 nM | >100 |
| CCOc1cccc2cc(/C(C)=N/NC(=O)c3ccc(F)cc3)c(=O)oc12 [Compound 3b, (E)-N′-[1-(8-Ethoxy-2-oxo-2H-chromen-3-yl)ethylidene]-4-fluorobenzohydrazide] | 252 nM and 159 nM | >100 |
| COc1cccc2cc(/C(C)=N/NC(=S)NCc3ccc(C)cc3)c(=O)oc12 [Compound 5c, (E)-2-[1-(8-Methoxy-2-oxo-2H-chromen-3-yl)ethylidene]-N-(4-methylbenzyl) hydrazine-1-carbothioamide] | 128 ± 2.82 nM | 43.55 ± 0.10 |
| COc1cccc2cc(/C(C)=N/NC(=S)Nc3ccc(C)cc3C)c(=O)oc12 [Compound 5b, (E)-N-(2,4-Dimethylphenyl)-2-[1-(8-methoxy-2-oxo-2H-chromen-3-yl)ethylidene] hydrazine-1-carbothioamide] | 198 ± 6.04 nM | 58.06 ± 0.08 |
| O=C(O)CN(CCN(CC(=O)O)CC(=O)O)CC(=O)O [EDTA, Ethylenediaminetetraacetic acid, reference compound] | – | 66.82 ± 0.40 |
| COc1cccc2cc(/C(C)=N/NC(=S)NCC(C)C)c(=O)oc12 [Compound 5d, (E)-N-Isobutyl-2-[1-(8-methoxy-2-oxo-2H-chromen-3-yl)ethylidene]hydrazine-1-carbothioamide] | 237 ± 3.43 nM | 50.38 ± 0.04 |
| CCOc1cccc2cc(/C(C)=N/NC(=O)c3ccc(Br)cc3)c(=O)oc12 [Compound 3c, (E)-4-Bromo-N′-[1-(8-ethoxy-2-oxo-2H-chromen-3-yl)ethylidene]benzohydrazide] | 209 ± 12.4 nM | >100 |
